Data reported in patent US11957783B2, “Topical immunosensitizers to treat viral and fungal infections” (Squarex, LLC, priority 2018, dated 2024).
Marks after values point to notes of the source that are not given here.

Tested on: peripheral blood mononuclear cells (PBMC)
Assay: Cytokine and immune-function gene expression of PBMC in vitro (qRT-PCR, 41 immune-related genes)
Type: cell-based, human
Protocol: After a screening visit at which blood was drawn to test for IgG antibody against HSV-1 and subjects were interviewed for inclusion/exclusion criteria, selected subjects returned for blood draws on day 1. After the blood draw on day 1, subjects in group A only were dosed with SADBE. A petrolatum donut was applied with a cotton swab to form about a 1 cm diameter donut on skin on the inner aspect of the upper arm. Then a separate cotton swab was dipped in a 2% SADBE solution (w/v) in DMSO, and the swab was then used to apply about 10-20 mg of solution over about a 1 cm diameter circle within the petrolatum donut. Immediately after application, the application site was covered with TEGADERM. Subjects were advised to remove the TEGADERM and rinse and wipe the spot three hours later. The group A subjects then returned for blood draws on days 15 and 57 and were queried about adverse events on those dates.
PBMC were isolated using SepMate PBMC isolation tubes (Stem Cell Technologies, Vancouver, Canada) and Ficoll-Paque according to the manufacturer's instructions. PBMC were isolated and suspended in negative control medium at 2 million cells/ml. PBMC suspension (100 μL) was added to 100 μL of medium in quadruplicate in 96-well plates. The plates were prepared in advance and stored at −70° C. The wells were in five different conditions in quadruplicate with these final concentrations after addition of the 100 μL of PBMC suspension in negative control medium. • 1. Negative control in medium (RPMI with glutamine and pen/strep, supplemented with 10% human A/B serum). • 2. Medium plus 16 μg/ml protein from heat-inactivated HSV-1-infected Vero cell extracts. • 3. Medium plus heat-inactivated HSV-1 cell-free virus at a final 7.5 million pfu/ml. • 4. Medium plus Candida cell extract. (Greer item number M15A50, 20,000 pnu/ml allergenic extract mixed molds Candida albicans, was diluted 1/50 into medium). • 5. Positive control, medium plus 10 μg/ml concanavalin A.
Two plates were created for each subject at each collection point. One plate was incubated for 2 days at 37° C. in a humidified 5% CO2 atmosphere and then RNA was isolated from the pooled contents of the 4 wells of a given condition for a specific patient, and the RNA was stored at −70° C. and subsequently used for quantitative real time PCR analysis of gene expression of 41 immune-related genes.
As noted above, after 2 days of growth of the PBMC in a 37° C. humidified 5% CO2 incubator in a 96-well plate, four wells of a single condition (negative control, positive control, heat-inactivated HSV-1, HSV-1-infected cell extracts, or Candida extract) with cells from a single subject (200 μL in each well) were pooled, and the RNA was immediately isolated with Trizol reagent and chloroform by Qiagen RNeasy MiniElute clean up kit Qiagen cat #74204, according to manufacturer's instructions into a final volume of 13 μL, and then flash frozen on powdered dry ice, and stored at −70° C. in aliquots of 3 μL for RNA quantification and 10 μL for PCR analysis.
RNA was preamplified with the Qiagen RT2 PreAMP cDNA synthesis kit (Ref. 330451) and custom RT2 PreAmp primer mix (Ref. 330141) starting with about 50 ng RNA according to the procedure of RT preamp cDNA synthesis handbook date March 2011, pages 17-20. The amplification reactions (final 120 μL) were frozen at −70° C. and used for qPCR analysis the next day.
qPCR was done with the Qiagen RT PCR profiler gene analysis kit (catalog number 330451) using RT2 Sybr Green Rox qPCR Mastermix (24) (Part 330523) and Custom RT2 PCR array plates (Ref. 330171). For this 675 μL 2×RT2 SYBR green mastermix, 51 μL pre-AMP synthesis reaction, and 623 μL RNase free water were mixed, and then 25 μL of the mixture was added to 48 wells on the left or right half of the custom PCR plate. The PCR instrument was Applied Biosystems 7900HT fast real time PCR. […]

[1] = PBMC + Candida extract, group A day 57 vs day 1 (pre-dose), one topical 2% SADBE dose
[2] = PBMC + HSV-1-infected cell extracts (CE), group A day 57 vs day 1 (pre-dose), one topical 2% SADBE dose
[3] = PBMC + heat-killed HSV-1 virus, group A day 57 vs day 1 (pre-dose), one topical 2% SADBE dose

CCCCOc1c(OCCCC)c(=O)c1=O [SADBE, 3,4-Dibutoxy-3-cyclobutene-1,2-dione]
ratio of absolute expression in A57 vs. A1: FOXP3 [1]: 2.01 | ratio of absolute expression in A57 vs. A1: GATA3 [1]: 0.28 | ratio of absolute expression in A57 vs. A1: ICAM1 [1]: 1.27 | ratio of absolute expression in A57 vs. A1: IFNA1 [1]: 2.13 | ratio of absolute expression in A57 vs. A1: IFNB1 [1]: 0.93 | ratio of absolute expression in A57 vs. A1: IFNG [1]: 8.54 | ratio of absolute expression in A57 vs. A1: IL1B [1]: 1.73 | ratio of absolute expression in A57 vs. A1: IL1R1 [1]: 0.9 | ratio of absolute expression in A57 vs. A1: IL1RN [1]: 1.91 | ratio of absolute expression in A57 vs. A1: IL2 [1]: 6.31 | ratio of absolute expression in A57 vs. A1: IL4 [1]: 1.52 | ratio of absolute expression in A57 vs. A1: IL5 [1]: 1.1 | ratio of absolute expression in A57 vs. A1: IL8 [1]: 1.89 | ratio of absolute expression in A57 vs. A1: IL10 [1]: 1.12 | ratio of absolute expression in A57 vs. A1: IL12A [1]: 1.64 | ratio of absolute expression in A57 vs. A1: IL12B [1]: 3.61 | ratio of absolute expression in A57 vs. A1: IL13 [1]: 4.28 | ratio of absolute expression in A57 vs. A1: IL15 [1]: 2.18 | ratio of absolute expression in A57 vs. A1: IL16 [1]: 0.81 | ratio of absolute expression in A57 vs. A1: JAK2 [1]: 1.68 | ratio of absolute expression in A57 vs. A1: LTA [1]: 1.94 | ratio of absolute expression in A57 vs. A1: LYZ [1]: 0.93 | ratio of absolute expression in A57 vs. A1: MX1 [1]: 1.34 | ratio of absolute expression in A57 vs. A1: NOD1 [1]: 1.18 | ratio of absolute expression in A57 vs. A1: SPP1 [1]: 7.34 | ratio of absolute expression in A57 vs. A1: STAT1 [1]: 3.36 | ratio of absolute expression in A57 vs. A1: STAT4 [1]: 1.76 | ratio of absolute expression in A57 vs. A1: TNF [1]: 1.22 | ratio of absolute expression in A57 vs. A1: TNFSF10 [1]: 1.52 | ratio of absolute expression in A57 vs. A1: TNFSF13B [1]: 1.62 | ratio of absolute expression in A57 vs. A1: CCL2 [2]: 1.21 | ratio of absolute expression in A57 vs. A1: CCL3 [2]: 4.6 | ratio of absolute expression in A57 vs. A1: CCL7 [2]: 0.75 | ratio of absolute expression in A57 vs. A1: CCR5 [2]: 0.93 | ratio of absolute expression in A57 vs. A1: CD80 [2]: 0.93 | ratio of absolute expression in A57 vs. A1: CXCL2 [2]: 2.79 | ratio of absolute expression in A57 vs. A1: CXCL5 [2]: 6.03 | ratio of absolute expression in A57 vs. A1: CXCL9 [2]: 0.91 | ratio of absolute expression in A57 vs. A1: CXCL10 [2]: 0.49 | ratio of absolute expression in A57 vs. A1: CXCL11 [2]: 0.31 | ratio of absolute expression in A57 vs. A1: DDX58 [2]: 0.94 | ratio of absolute expression in A57 vs. A1: FOXP3 [2]: 1.11 | ratio of absolute expression in A57 vs. A1: GATA3 [2]: 2.6 | ratio of absolute expression in A57 vs. A1: ICAM1 [2]: 0.77 | ratio of absolute expression in A57 vs. A1: IFNA1 [2]: 1.29 | ratio of absolute expression in A57 vs. A1: IFNB1 [2]: 0.65 | ratio of absolute expression in A57 vs. A1: IFNG [2]: 5.72 | ratio of absolute expression in A57 vs. A1: IL1B [2]: 21.45 | ratio of absolute expression in A57 vs. A1: IL1R1 [2]: 1.11 | ratio of absolute expression in A57 vs. A1: IL1RN [2]: 0.79 | ratio of absolute expression in A57 vs. A1: IL2 [2]: 2.48 | ratio of absolute expression in A57 vs. A1: IL4 [2]: 0.89 | ratio of absolute expression in A57 vs. A1: IL5 [2]: 0.5 | ratio of absolute expression in A57 vs. A1: IL8 [2]: 3.86 | ratio of absolute expression in A57 vs. A1: IL10 [2]: 3.29 | ratio of absolute expression in A57 vs. A1: IL12A [2]: 0.89 | ratio of absolute expression in A57 vs. A1: IL12B [2]: 0.23 | ratio of absolute expression in A57 vs. A1: IL13 [2]: 2.28 | ratio of absolute expression in A57 vs. A1: IL15 [2]: 0.87 | ratio of absolute expression in A57 vs. A1: IL16 [2]: 1.02 | ratio of absolute expression in A57 vs. A1: JAK2 [2]: 0.82 | ratio of absolute expression in A57 vs. A1: LTA [2]: 0.99 | ratio of absolute expression in A57 vs. A1: LYZ [2]: 0.29 | ratio of absolute expression in A57 vs. A1: MX1 [2]: 0.66 | ratio of absolute expression in A57 vs. A1: NOD1 [2]: 0.89 | ratio of absolute expression in A57 vs. A1: SPP1 [2]: 5.38 | ratio of absolute expression in A57 vs. A1: STAT1 [2]: 0.91 | ratio of absolute expression in A57 vs. A1: STAT4 [2]: 1.01 | ratio of absolute expression in A57 vs. A1: TNF [2]: 1.2 | ratio of absolute expression in A57 vs. A1: TNFSF10 [2]: 0.88 | ratio of absolute expression in A57 vs. A1: TNFSF1313 [2]: 1.07 | ratio of absolute expression in A57 vs. A1: CCL2 [3]: 1.71 | ratio of absolute expression in A57 vs. A1: CCL3 [3]: 3.73 | ratio of absolute expression in A57 vs. A1: CCL7 [3]: 1.81 | ratio of absolute expression in A57 vs. A1: CCR5 [3]: 1.35 | ratio of absolute expression in A57 vs. A1: CD80 [3]: 1.25 | ratio of absolute expression in A57 vs. A1: CXCL2 [3]: 1.58 | ratio of absolute expression in A57 vs. A1: CXCL5 [3]: 2.52 | ratio of absolute expression in A57 vs. A1: CXCL9 [3]: 2.5 | ratio of absolute expression in A57 vs. A1: CXCL10 [3]: 1 | ratio of absolute expression in A57 vs. A1: CXCL11 [3]: 0.4 | ratio of absolute expression in A57 vs. A1: DDX58 [3]: 0.95 | ratio of absolute expression in A57 vs. A1: FOXP3 [3]: 2.46 | ratio of absolute expression in A57 vs. A1: GATA3 [3]: 0.32 | ratio of absolute expression in A57 vs. A1: ICAM1 [3]: 1.07 | ratio of absolute expression in A57 vs. A1: IFNA1 [3]: 1.34 | ratio of absolute expression in A57 vs. A1: IFNB1 [3]: 0.87 | ratio of absolute expression in A57 vs. A1: IFNG [3]: 11.01 | ratio of absolute expression in A57 vs. A1: IL1B [3]: 5.09 | ratio of absolute expression in A57 vs. A1: IL1R1 [3]: 0.97 | ratio of absolute expression in A57 vs. A1: IL1RN [3]: 1.48 | ratio of absolute expression in A57 vs. A1: IL2 [3]: 2.11 | ratio of absolute expression in A57 vs. A1: IL4 [3]: 1.32 | ratio of absolute expression in A57 vs. A1: IL5 [3]: 0.56 | ratio of absolute expression in A57 vs. A1: IL8 [3]: 3.3 | ratio of absolute expression in A57 vs. A1: IL10 [3]: 2.29 | ratio of absolute expression in A57 vs. A1: IL12A [3]: 1.48 | ratio of absolute expression in A57 vs. A1: IL12B [3]: 2.08 | ratio of absolute expression in A57 vs. A1: IL13 [3]: 3.02 | ratio of absolute expression in A57 vs. A1: IL15 [3]: 1.54 | ratio of absolute expression in A57 vs. A1: IL16 [3]: 0.82 | ratio of absolute expression in A57 vs. A1: JAK2 [3]: 1.26 | ratio of absolute expression in A57 vs. A1: LTA [3]: 1.84 | ratio of absolute expression in A57 vs. A1: LYZ [3]: 0.53 | ratio of absolute expression in A57 vs. A1: MX1 [3]: 0.66 | ratio of absolute expression in A57 vs. A1: NOD1 [3]: 1.14 | ratio of absolute expression in A57 vs. A1: SPP1 [3]: 15.29 | ratio of absolute expression in A57 vs. A1: STAT1 [3]: 1.41 | ratio of absolute expression in A57 vs. A1: STAT4 [3]: 1.69 | ratio of absolute expression in A57 vs. A1: TNF [3]: 1.19 | ratio of absolute expression in A57 vs. A1: TNFSF10 [3]: 1.01 | ratio of absolute expression in A57 vs. A1: TNFSF13B [3]: 1.23 | Ratio of absolute IFNG gene expression in group A vs. Groups B + C pooled (Virus, group A day 57 after SADBE): 3.359* | IFNG expression in group A on day 57 than day 1 (all three stimuli, PBMC): at least 8 fold
